Measurements as given in paper PMC6630832, “3-Vinylazetidin-2-Ones: Synthesis, Antiproliferative and Tubulin Destabilizing Activity in MCF-7 and MDA-MB-231 Breast Cancer Cells” (Pharmaceuticals, 2019).
Read-outs that look alike come from different tables or passages of the source.

Assays:
[1] = test system: Hs578Ts(i)8 cells; experiment: Antiproliferative activity in invasive Hs578Ts(i)8 cells; type: cell-based
[2] = test system: HL-60; experiment: Antiproliferative activity in HL-60 leukemia cells; type: cell-based; details: Homo sapiens
Procedure: The human breast carcinoma cell line MCF-7, was purchased from the European Collection of Animal Cell Cultures (ECACC) and was cultured in Eagle’s minimum essential medium with 10% fetal bovine serum, 2 mM L-glutamine and 100 μg/mL penicillin/streptomycin. The medium was supplemented with 1% non-essential amino acids. The human breast carcinoma cell line MDA-MB-231 was purchased from the European Collection of Animal Cell Cultures (ECACC). MDA-MB-231 cells were maintained in Dulbecco’s modified Eagle’s medium (DMEM) supplemeted with 10% (v/v) fetal bovine serum, 2 mM L-glutamine and 100 μg/mL penicillin/streptomycin (complete medium). All media contained 100 U/mL penicillin and 100 μg/mL streptomycin. […]
Cells were seeded at a density of 5 × 10^3 cells/well (MCF-7), in triplicate in 96-well plates. […] Cell viability for MCF-7 and MDA-MB-231 was analysed using the Alamar Blue assay (Invitrogen Corp, Thermo Fisher Scientific, 168 Third Avenue, Waltham, MA, USA) according to the manufacturer’s instructions. […] Fluorescence was read using a 96-well fluorimeter with excitation at 530 nm and emission at 590 nm. Results were expressed as percentage viability relative to vehicle control (100%). […]

[3] = test system: Hs578T breast cancer cell line; experiment: Antiproliferative activity in Hs578T cells; type: cell-based; details: Homo sapiens, Hs-578T
[4] = test system: MCF-7 cells; experiment: Annexin V/PI apoptotic assay; details: for apoptotic cells (annexin-V positive): MCF-7, 72 h
Procedure: Apoptotic cell death was detected by flow cytometry using Annexin V and propidium iodide (PI). […] Cells were then harvested and prepared for flow cytometric analysis. Cells were washed in 1X binding buffer (20X binding buffer: 0.1M HEPES, pH 7.4; 1.4 M NaCl; 25 mM CaCl2 diluted in dH2O) and incubated in the dark for 30 min on ice in Annexin V-containing binding buffer [1:100]. Cells were then washed once in binding buffer and then re-suspended in PI-containing binding buffer [1:1000]. […] Four populations are produced during the assay Annexin V and PI negative (Q4, healthy cells), Annexin V positive and PI negative (Q3, early apoptosis), Annexin V and PI positive (Q2, late apoptosis) and Annexin V negative and PI positive (Q1, necrosis). Paclitaxel was used as a positive control for cell death

[5] = test system: MCF-7 cells; experiment: Cell cycle analysis (PI flow cytometry); type: cell-based, human; details: for apoptotic cells (sub-G0G1): 72 h
Procedure: MCF-7 cells (adherent and detached) were treated with the appropriate concentration of compound 7s and incubated for the designated time. Cells were collected, trypsinised and centrifuged at 800× g for 15 min. Cells were washed twice with ice-cold PBS and fixed in ice-cold 70% ethanol overnight at −20 °C. Fixed cells were centrifuged at 800× g for 15 min and stained with 50 μg/mL of PI, containing 50 μg/mL of DNase-free RNase A, at 37 °C for 30 min.

[6] = test system: colchicine-binding site of tubulin; experiment: Colchicine-binding site assay (EBI cross-linking, Western blot) in MCF-7 cells; type: cell-based, human; details: 10 μM for 2 h, then EBI 100 μM for 1.5 h
Procedure: MCF-7 cells were seeded at a density of 5 × 10^4 cells/well in 6-well plates and incubated overnight. Cells were treated with vehicle control [ethanol (0.1% v/v)] or compound 7s (10 μM) for 2 h. After this time, selected wells were treated with N,N′-ethylene-bis(iodoacetamide)(EBI) (100 μM) (Santa Cruz Biotechnology Inc. 10410 Finnell Street, Dallas, Texas, USA) for 1.5 h. Following treatment, cells were twice washed with ice-cold PBS and lysed by addition of Laemmli buffer. Samples were separated by SDS-PAGE, trasnsferred to polyvinylidene difluoride membranes and probed with β-tubulin antibodies (Sigma-Aldrich, 2033 Westport Center Dr, St. Louis, MO, USA).

[7] = Cytotoxicity assay in primary murine mammary epithelial cells (alamar blue); type: cell-based, mouse; details: female, CD-1, mouse, primary mammary epithelial cells, 72 h; for viability at 72 h, 10 μM: murine epithelial cells, read-out: % Viable cells; for viability at 72 h: at the compound's IC50 in MCF-7 cells, read-out: % Viable cells at IC50
Procedure: (§1) As previously reported mammary glands from 14–18 day pregnant CD-1 mice were used as source and primary mammary epithelial cell cultures were prepared from these. The isolated mammary epithelial cells were seeded at two concentrations (25,000 cells/mL and 50,000 cells/mL). […] After 24 h, the cells were treated with 2 µL volumes of test compound 7s which had been pre-prepared as stock solutions in ethanol to furnish the concentration range of study, 1 nM–100 µM, and re-incubated for a further 72 h. Control wells contained the equivalent volume of the vehicle ethanol (1% v/v). The cytotoxicity was assessed using alamar blue dye.

[8] = test system: normal murine mammary epithelial cells; experiment: as above; type: cell-based, mouse; details: for IC50: Mus musculus, Epithelial cell, alamar blue; for IC50 / % Viable cells at IC50: 72 h; for % Viable cells at IC50: at the compound's IC50 in MCF-7 cells, 25,000 cells/mL
Procedure: as §1

[9] = test system: HOP-62; experiment: NCI60 screen (SRB), Non-Small Cell Lung Cancer; type: cell-based; details: Homo sapiens
[10] = test system: NCI-H226; experiment: NCI60 screen (SRB), Non-Small Cell Lung Cancer; type: cell-based; details: Homo sapiens
[11] = test system: NCI-H552; experiment: NCI60 screen (SRB), Non-Small Cell Lung Cancer; type: cell-based
[12] = test system: NCI-H460; experiment: NCI60 screen (SRB), Non-Small Cell Lung Cancer; type: cell-based; details: Homo sapiens
[13] = test system: A549/ATCC; experiment: NCI60 screen (SRB), Non-Small Cell Lung Cancer; type: cell-based; details: Homo sapiens
[14] = test system: NCI-H23; experiment: NCI60 screen (SRB), Non-Small Cell Lung Cancer; type: cell-based; details: Homo sapiens
[15] = Whole blood stability study; type: in vitro ADME; details: 37 °C
[16] = Homo sapiens, MCF7, 72 h, read-out: Viable

| Structure (SMILES) | IC50 [2] | β-tubulin-EBI adduct formation [6] | viability at 72 h, 10 μM ([7]; 10 μM, 25,000 cells/mL) | viability at 72 h, 10 μM ([7]; 10 μM, 50,000 cells/mL) | viability at 72 h ([7]; 25,000 cells/mL) | viability at 72 h ([7]; 50,000 cells/mL) | IC50 [8] | % Viable cells at IC50 [8] | GI50 [9] | GI50 [10] | GI50 [11] | GI50 [12] | GI50 [13] | GI50 [14] | remaining after 6 h [15] | other results |
| --- | --- | --- | --- | --- | --- | --- | --- | --- | --- | --- | --- | --- | --- | --- | --- | --- |
| COc1ccc(/C=C\c2cc(OC)c(OC)c(OC)c2)cc1O [CA-4, Combretastatin A-4, reference compound] | 4 nM | EBI adduct formation is inhibited | 58% | 75% | 74% | 92.1% | > 10000 nM | 73.6% | – | – | – | – | – | – | – | IC50 ([1]; invasive Hs578Ts(i)8 cells, read-out: IC50): 20 nM; IC50 ([3]; triple-negative Hs578T cells, read-out: IC50): 8 nM; viability at 0.05 µM [4, 16]: 61.8%; apoptotic cells (annexin-V positive) ([4]; 50 nM): 34.6%; cells in G2M arrest ([5]; 100 nM, 48 h): 52%; sub-G0G1 population ([5]; 100 nM, 48 h): 9.4% |
| C=CC1C(=O)N(c2cc(OC)c(OC)c(OC)c2)C1c1ccc(OC)cc1 (centres unmarked) [Compound 7h, 4-(4-Methoxyphenyl)-1-(3,4,5-trimethoxyphenyl)-3-vinylazetidin-2-one] | – | – | – | – | – | – | – | – | 36.9 nM | 33.9 nM | 20.6 nM | 36 nM | 41.3 nM | 24.5 nM | – | IC50 [1]: 76 nM; IC50 [3]: 31 nM |
| C=CC1C(=O)N(c2cc(OC)c(OC)c(OC)c2)C1c1ccc(OC)c(O)c1 (centres unmarked) [Compound 7s, 4-[3-Hydroxy-4-methoxyphenyl]-1-(3,4,5-trimethoxyphenyl)-3-vinylazetidin-2-one] | 17 nM | EBI adduct formation is inhibited | 60% | 73.3% | 93% | > 90% | > 10000 nM | 93.1% | – | – | – | – | – | – | – | viability at 0.01 µM [4, 16]: 82.8%; viability at 0.1 µM [4, 16]: 64.5%; apoptotic cells (annexin-V positive) ([4]; 10 nM): About 13.6%; apoptotic cells (annexin-V positive) ([4]; 100 nM): 31.9%; cells in G2M arrest ([5]; 10 nM, 24 h): 64%; apoptotic cells (sub-G0G1) ([5]; 10 nM): 14%; cells in G2M arrest ([5]; 100 nM, 24 h): 82%; apoptotic cells (sub-G0G1) ([5]; 100 nM): 26%; cytotoxicity against murine mammary epithelial cells [8]: minimal cytotoxicity |
| C=CC1C(=O)N(c2cc(OC)c(OC)c(OC)c2)C1c1ccc(OC)c(N)c1 (centres unmarked) [Compound 7t, 4-(3-Amino-4-methoxyphenyl)-1-(3,4,5-trimethoxyphenyl)-3-vinylazetidin-2-one] | – | – | – | – | – | – | – | – | 41.2 nM | 38.7 nM | < 10 nM | 35.5 nM | 39.2 nM | 38.7 nM | – | – |
| C=CC1C(=O)N(c2cc(OC)c(OC)c(OC)c2)C1c1ccc(OC)c(OP(=O)(O)O)c1 (centres unmarked) [Compound 17b, 2-Methoxy-5-(1-(3,4,5-trimethoxyphenyl)-4-oxo-3-vinylazetidin-2-yl)phenyl dihydrogen phosphate] | – | – | – | – | – | – | – | – | – | – | – | – | – | – | 62% | – |
| CCC1C(=O)N(c2cc(OC)c(OC)c(OC)c2)C1c1ccc(OC)c(OP(=O)(O)O)c1 (centres unmarked) [Compound 17c, 5-(3-Ethyl-1-(3,4,5-trimethoxyphenyl)-4-oxoazetidin-2-yl)-2-methoxyphenyl dihydrogen phosphate] | – | – | – | – | – | – | – | – | – | – | – | – | – | – | 34% | – |
